Values of other authors, collected in paper PMC3483082 (Chembiochem : a European journal of chemical biology, 2012).
pIC50: −log10 of the molar value.

Columns and labels:
CDK1 = settings: read-out: IC50 CDK1
CDK2 = settings: read-out: IC50 (CDK2 inhibitor)

**Q.** With `CCN(CC)CCNC(=O)c1c(C)[nH]c(/C=C2\C(=O)Nc3ccc(F)cc32)c1C` [Hit 1, sunitinib] as the compound, how does the pIC50 (CDK1) read?
**A.** 5.59
